# Where a name gives a salt, the structure may show the parent alone.
# Test: collision cross section in nitrogen (drift tube, single-field); higher = larger gas-phase ion size
# [1] = ion type: [M+H], ion source: APCI, ion mode: Positive
# [2] = ion type: [M+H], ion source: ESI, ion mode: Positive
# [3] = ion type: [M+Na], ion source: ESI, ion mode: Positive
# [4] = ion type: [M+], ion source: APCI, ion mode: Positive
# [5] = ion type: [M-H], ion source: ESI, ion mode: Negative
# 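Further: chemical standards at 10 µM analysed by drift tube IMS-QTOF MS in about 3.95 torr nitrogen, mean of duplicate injections differing ≤1%, mass error below 10 ppm.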
SMILES,collision cross section in nitrogen [2] [Å²],collision cross section in nitrogen [3] [Å²],collision cross section in nitrogen [5] [Å²],further results
"Cc1cc(C)cc(O)c1 [3,5-Dimethylphenol]",,,127.3,
"Cc1c2ccccc2c(C)c2c1ccc1ccccc12 [7,12-Dimethylbenz[a]anthracene]",,,,collision cross section in nitrogen [4]: 155.2 Å²
O=[N+]([O-])c1ccccc1O [Sodium 2-nitrophenolate],,,121.6,
CC(C)Oc1ccc(S(=O)(=O)c2ccc(O)cc2)cc1 [4-((4-Isopropoxyphenyl)sulfonyl)phenol],171.8,187.9,174.8,collision cross section in nitrogen [1]: 180.9 Å²
O=[N+]([O-])c1cc([As](=O)(O)O)ccc1O [4-Hydroxy-3-nitrophenylarsonic acid],145,,141.8,
CC(O)CN(CC(C)O)CC(C)O (stereo unspecified) [Triisopropanolamine],141.5,143.9,,collision cross section in nitrogen [1]: 141.3 Å²
CCOc1cc(Oc2ccc(C(F)(F)F)cc2Cl)ccc1[N+](=O)[O-] [Oxyfluorfen],,,172.1,
OC(c1ccc(Cl)cc1)(c1ccc(Cl)cc1)c1cccnc1 [Parinol],183.1,,177.2,collision cross section in nitrogen [1]: 183.7 Å²
CCN(CC)c1ccc2cc(-c3nc4cc(S(N)(=O)=O)ccc4o3)c(=O)oc2c1,205.5,219.6,218.6,
NNc1nc(-c2ccc([N+](=O)[O-])cc2)cs1 [2-Hydrazino-4-(4-nitrophenyl)thiazole],,,149,
Nc1nc(N)nc(NC2CC2)n1 [Cyromazine],135.9,,,collision cross section in nitrogen [1]: 135.6 Å²
CC(C)N1C(=O)N(c2ccccc2)CSC1=NC(C)(C)C [Buprofezin],173.9,188,,collision cross section in nitrogen [1]: 173.6 Å²
CCNc1cc2[o+]c3cc(NCC)c(C)cc3c(-c3ccccc3C(=O)OCC)c2cc1C [Rhodamine 6G],,,,"collision cross section in nitrogen (ion source: APCI, ion mode: Positive, ion type: [M]+ (permanent cation)): 218.3 Å²; collision cross section in nitrogen (ion source: ESI, ion mode: Positive, ion type: [M]+ (permanent cation)): 218.9 Å²"
Cc1ccc(N(SC(F)(Cl)Cl)S(=O)(=O)N(C)C)cc1 [Tolylfluanid],,177.6,,
"S=c1[nH]c2cc(Cl)ccc2s1 [5-Chloro-1,3-benzothiazole-2(3H)-thione]",,,133.3,
"CC(Cc1ccc(C(C)(C)C)cc1)CN1C[C@@H](C)O[C@@H](C)C1 (stereo partly drawn) [(2R,6S)-Fenpropimorph]",173.5,,,collision cross section in nitrogen [1]: 173.1 Å²
CCCCC(O)(Cn1cncn1)c1ccc(Cl)cc1Cl (stereo unspecified) [Hexaconazole],173.5,187,,collision cross section in nitrogen [1]: 174.6 Å²
O=C(NC(=O)c1c(F)cccc1F)Nc1cc(Cl)c(OC(F)(F)C(F)C(F)(F)F)cc1Cl (stereo unspecified) [Lufenuron],,,205.4,
C[C@]12CCC(=O)C(O)=C1CC[C@@H]1[C@@H]2CC[C@]2(C)C(=O)CC[C@@H]12 [4-Hydroxyandrostenedione],,,180,
O=S(=O)(O)C(F)(F)C(F)(F)C(F)(F)C(F)(F)C(F)(F)C(F)(F)F [Potassium perfluorohexanesulfonate],,,150.9,
O=C(O)C(F)(F)C(F)(F)C(F)(F)C(F)(F)C(F)(F)C(F)(F)C(F)(F)C(F)(F)C(F)(F)F [Perfluorodecanoic acid],,,175.1,
c1cc2ccc3cccc4ccc(c1)c2c34 [Pyrene],,,,collision cross section in nitrogen [4]: 136.3 Å²
O=C(O)COc1ccc2ccccc2c1 [2-Naphthoxyacetic acid],,,151.2,

# More lines, main results first:
collision cross section in nitrogen [2] [Å²],collision cross section in nitrogen [3] [Å²],collision cross section in nitrogen [5] [Å²],SMILES,further results
158.3,173,157.7,Nc1nc(N)c2nc(-c3ccccc3)c(N)nc2n1 [Triamterene],collision cross section in nitrogen [1]: 158.4 Å²; collision cross section in nitrogen [4]: 155 Å²
,,137.4,CCCCC(CC)C(=O)O (stereo unspecified) [Barium bis(2-ethylhexanoate)],
224.2,231.6,,CCCCc1oc2ccccc2c1C(=O)c1cc(I)c(OCCN(CC)CC)c(I)c1 [Amiodarone hydrochloride],collision cross section in nitrogen [1]: 223.8 Å²; collision cross section in nitrogen [4]: 224 Å²
204.8,213.4,206.7,CC(=O)OCC(=O)[C@@]12N=C(C)O[C@@H]1C[C@H]1[C@@H]3CCC4=CC(=O)C=C[C@]4(C)[C@H]3[C@@H](O)C[C@@]12C [Deflazacort],collision cross section in nitrogen [1]: 205.2 Å²
,,200,CC(C)n1c(/C=C/[C@H](O)C[C@H](O)CC(=O)O)c(-c2ccc(F)cc2)c2ccccc21 [Fluvastatin],
,,171.5,CCCCCCCCOC(=O)c1cc(O)c(O)c(O)c1 [Octyl gallate],
146.4,,140.9,"CCOC(=O)c1sc(N)nc1C(F)(F)F [Ethyl 2-amino-4-(trifluoromethyl)-1,3-thiazole-5-carboxylate]",collision cross section in nitrogen [1]: 155.3 Å²
,144,133.3,Cc1ncc(CO)c(CO)c1O [Pyridoxine hydrochloride],collision cross section in nitrogen [1]: 133.7 Å²
,,160.9,O=C(O)c1ccccc1Nc1cccc(C(F)(F)F)c1 [Flufenamic acid],collision cross section in nitrogen [4]: 157.7 Å²
,,154.6,Cc1cc(O)c2c(c1)C(=O)c1cc(O)cc(O)c1C2=O [Emodin],
,,167.5,CC(Cc1ccc(O)c(O)c1)C(C)Cc1ccc(O)c(O)c1 (stereo unspecified) [Nordihydroguaiaretic acid],
,176.2,178.7,"COC(=O)CCc1cc(C(C)(C)C)c(O)c(C(C)(C)C)c1 [Methyl 3,5-bis(tert-butyl)-4-hydroxyhydrocinnamate]",
,176.6,165,CCCCNC(=O)NS(=O)(=O)c1ccc(C)cc1 [Tolbutamide],
167.5,,,CNc1ccc(NCCO)c2c1C(=O)c1ccccc1C2=O [C.I. Disperse Blue 3],collision cross section in nitrogen [1]: 167.2 Å²
,189.2,178.9,C=C[C@](C)(O)CC[C@@H]1[C@@]2(C)CCCC(C)(C)[C@@H]2CC[C@@]1(C)O [Sclareol],
,,176.3,CCCCCCCC/C=C\CCCCCCCC(=O)O [Oleic acid],
,189.8,,"O=C(OCCCCCCOC(=O)c1ccccc1)c1ccccc1 [Hexane-1,6-diyl dibenzoate]",
,,138.2,CC(=O)Nc1ccc(C)c(Cl)c1 [N-(3-Chloro-4-methylphenyl)acetamide],
,175.4,,"CCOC(=O)CC(CC(=O)OCC)(OC(C)=O)C(=O)OCC [Citric acid, triethyl ester, acetate]",
,,150.5,CCCCC(CC)COS(=O)(=O)O (stereo unspecified) [Sodium ethasulfate],
175.4,187,,O=C(NCc1ncc(C(F)(F)F)cc1Cl)c1c(Cl)cccc1Cl [Fluopicolide],
